What was measured:
[1] = target: IRAK4 kinase (Homo sapiens (Human), UniProt Q9NWZ3); assay: IRAK4 kinase activity assay (mobility shift, Km ATP); assay type: biochemical; settings: Km ATP (15.6 μM ATP), 1 nM IRAK4, 60 min room temperature
Protocol: Inhibitory activity (IC50) of the compounds against IRAK4 kinase under Km ATP was detected through mobility spectrum analysis (MSA). IRAK4 kinase was purchased from Carna (Cat. No.: 09-145, batch No.: 14CBS-0020H), and Kinase Substrate 8 was purchased from GL Biochem (Cat. No.: 112396, batch No.: P171207-MJI112396).
The compounds were prepared with DMSO to 100 times the final reaction concentration and diluted to 10 concentrations in sequence at a 3-fold dilution ratio starting from 1 μM. Then 0.25 μL was transferred to a 384-well plate using Echo550. A 1× kinase buffer (50 mM HEPES, pH=7.5, 0.0015% Brij-35, 10 mM MgCl2, 2 mM DTT) was used to prepare a kinase solution of 2.5 times the final concentration. Then 10 μL of the kinase solution of 2.5 times the final concentration was added to each compound well, shaken and mixed uniformly, and incubated at room temperature for 10 min. A 1× kinase buffer was used to prepare a mixed solution of ATP and substrate Kinase Substrate 8 with a concentration of 25/15 times the final concentration. 15 μL of the mixed solution of ATP and the substrate with a concentration of 25/15 times the final concentration were added to each well (the final concentration of IRAK4 kinase was 1 nM, the final concentration of the substrate was 3 μM, and the final concentration of ATP was 15.6 μM), shaken and mixed uniformly, and reacted at room temperature for 60 min. Finally, 30 μL of stopping solution (100 mM HEPES, pH=7.5, 0.0015% Brij-35, 0.2% Coating Reagent #3, 50 mM EDTA) was added to terminate the reaction. CaliperEZ Reader II was used to read data about conversion rates that was then converted into data about inhibition rates. According to the data about the inhibition rate at each concentration, the half maximal inhibitory concentration (IC50) (Table 1) was calculated by a Logit method.

[2] = test system: TNFα secretion in THP-1 cells; assay: Cellular activity assay: LPS-stimulated TNFα secretion in THP-1 cells (ELISA); assay type: cell-based; settings: Homo sapiens, LPS 1 μg/mL, 4.5 h, read-out: IC50 inhibiting TNFα secretion in THP-1 cells stimulated by LPS
Protocol: Inhibition of IRAK4 by the compounds of the present application was evaluated in THP-1 cells for cellular activity. The stimulus used in this experiment was LPS. LPS is a TLR4 agonist that stimulates the secretion of TNFα through TLR-IRAK4 signaling pathway in the THP-1 cells. Once the signaling pathway is inhibited by IRAK4 inhibitors, the production of TNFα is inhibited. In this experiment, the secretion of TNFα was detected by ELISA.
150 μL of RPMI-1640 medium (Gibco, catalog No.: 11875-085) solution containing 10000 THP-1 cells were added to each well of a 96-well plate and then 25 μL of a test compound solution of 8 times the final concentration (starting from […], 3-fold dilution, 8 concentrations, each concentration containing 4% DMSO RPMI-1640 medium) were added, and they were mixed uniformly and incubated at 37° C. for 30 min. 25 μL of RPMI-1640 medium solution containing LPS were added to each well (the final LPS concentration was 1 μg/mL and the final DMSO concentration was 0.5%), mixed uniformaly, and incubated at 37° C. for 4.5 h. The 96-well plate was rotated at 2000 rpm for 5 min, then 50 μL of supernatant was taken, and the TNFα content in the supernatant was determined with a human ELISA kit (Life Technologies, catalog No.: KHC3011). The IC50 (Table 2) of the compound was calculated by XL-Fit.

Sequence of IRAK4 kinase (Q9NWZ3 whole entry): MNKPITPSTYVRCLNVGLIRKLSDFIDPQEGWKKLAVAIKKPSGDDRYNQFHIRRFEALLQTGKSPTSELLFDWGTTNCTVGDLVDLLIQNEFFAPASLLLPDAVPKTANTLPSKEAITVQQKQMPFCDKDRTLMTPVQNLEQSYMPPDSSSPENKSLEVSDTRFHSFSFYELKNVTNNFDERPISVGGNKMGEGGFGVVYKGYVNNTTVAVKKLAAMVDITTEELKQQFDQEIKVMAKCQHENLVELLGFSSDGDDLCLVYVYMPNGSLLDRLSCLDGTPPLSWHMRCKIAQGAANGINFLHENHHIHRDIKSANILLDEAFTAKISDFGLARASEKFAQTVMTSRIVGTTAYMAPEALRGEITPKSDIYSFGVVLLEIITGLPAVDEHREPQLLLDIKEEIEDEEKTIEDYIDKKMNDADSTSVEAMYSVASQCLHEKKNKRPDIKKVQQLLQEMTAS

| SMILES | IC50 [1] [nM] | IC50 [2] [nM] |
| --- | --- | --- |
| O=C(Nc1cn(C2CN(C3CCN(C(=O)CO)CC3)C2)nc1C(F)F)c1cccc(-c2cnn(CC(F)F)c2)n1 [Example 2, 6-(1-(2,2-Difluoroethyl)-1H-pyrazol-4-yl)-N-(3-(difluoromethyl)-1-(1-(1-(2-hydroxyacetyl)piperidin-4-yl)azetidin-3-yl)-1H-pyrazol-4-yl)-2-picolinamide] | 0.99 | 27 |
| O=C(Nc1cn(C2CN(C3CCN(C(=O)CO)CC3)C2)nc1C(F)F)c1cccc(-c2cnn(CC(F)(F)F)c2)n1 [Example 4, N-(3-(difluoromethyl)-1-(1-(1-(2-hydroxyacetyl)piperidin-4-yl)azetidin-3-yl)-1H-pyrazol-4-yl)-6-(1-(2,2,2-trifluoroethyl)-1H-pyrazol-4-yl)-2-picolinamide] | 0.68 | 33 |
| CC(=O)N1CCC(N2CC(n3cc(NC(=O)c4cccc(-c5cnn(C(C)(C)CN)c5)n4)c(C(F)F)n3)C2)CC1 [Example 13, N-(1-(1-(1-acetylpiperidin-4-yl)azetidin-3-yl)-3-(difluoromethyl)-1H-pyrazol-4-yl)-6-(1-(1-amino-2-methylpropan-2-yl)-1H-pyrazol-4-yl)-2-picolinamide] | 0.73 | 25 |
| CC(=O)N1CCC(N2CC(n3cc(NC(=O)c4cccc(-c5cc[nH]n5)n4)c(C(F)F)n3)C2)CC1 [Example 24, N-(1-(1-(1-acetylpiperidin-4-yl)azetidin-3-yl)-3-(difluoromethyl)-1H-pyrazol-4-yl)-6-(1H-pyrazole-3-yl)-2-picolinamide] | 0.59 | 20 |
| O=C(Nc1cn(C2CN(C3CCN(C(=O)CO)CC3)C2)nc1C(F)F)c1cccc(-c2cc[nH]n2)n1 [Example 27, N-(3-(difluoromethyl)-1-(1-(1-(2-hydroxyacetyl)piperidin-4-yl)azetidin-3-yl)-1H-pyrazol-4-yl)-6-(1H-pyrazol-3-yl)-2-picolinamide] | 0.51 | 18 |
| C[C@@H](O)C(=O)N1CCC(N2CC(n3cc(NC(=O)c4cccc(-c5cnn(CC(F)(F)F)c5)n4)c(C(F)F)n3)C2)CC1 [Example 31, (R)—N-(3-(difluoromethyl)-1-(1-(1-(2-hydroxypropionyl)piperidin-4-yl)azetidin-3-yl)-1H-pyrazol-4-yl)-6-(1-(2,2,2-trifluoroethyl)-1H-pyrazol-4-yl)-2-picolinamide] | 0.79 | 42 |
| CC(C)(O)C(=O)N1CCC(N2CC(n3cc(NC(=O)c4cccc(-c5cnn(CC(F)(F)F)c5)n4)c(C(F)F)n3)C2)CC1 [Example 32, N-(3-(difluoromethyl)-1-(1-(1-(2-hydroxy-2-methylpropionyl)piperidin-4-yl)azetidin-3-yl)-1H-pyrazol-4-yl)-6-(1-(2,2,2-trifluoroethyl)-1H-pyrazol-4-yl)-2-picolinamide] | 0.97 | 52 |
| C[C@H](O)C(=O)N1CCC(N2CC(n3cc(NC(=O)c4cccc(-c5cnn(CC(F)F)c5)n4)c(C(F)F)n3)C2)CC1 [Example 34, (S)-6-(1-(2,2-difluoroethyl)-1H-pyrazol-4-yl)-N-(3-(difluoromethyl)-1-(1-(1-(2-hydroxypropionyl)piperidin-4-yl)azetidin-3-yl)-1H-pyrazol-4-yl)-2-picolinamide] | 1 | 46 |
| CC(C)(O)C(=O)N1CCC(N2CC(n3cc(NC(=O)c4cccc(-c5cnn(CC(F)F)c5)n4)c(C(F)F)n3)C2)CC1 [Example 36, 6-(1-(2,2-Difluoroethyl)-1H-pyrazol-4-yl)-N-(3-(difluoromethyl)-1-(1-(1-(2-hydroxy-2-methylpropionyl)piperidin-4-yl)azetidin-3-yl)-1H-pyrazol-4-yl)-2-picolinamide] | 0.96 | 50 |
| CN(C)C(=O)N1CCC(N2CC(n3cc(NC(=O)c4cccc(-c5cnn(CC(F)F)c5)n4)c(C(F)F)n3)C2)CC1 [Example 38, 6-(1-(2,2-Difluoroethyl)-1H-pyrazol-4-yl)-N-(3-(difluoromethyl)-1-(1-(1-(dimethylcarbamoyl)piperidin-4-yl)azetidin-3-yl)-1H-pyrazol-4-yl)-2-picolinamide] | 1.5 | – |
| CC(C)(O)C(=O)N1CCC(N2CC(n3cc(NC(=O)c4cccc(-c5cc[nH]n5)n4)c(C(F)F)n3)C2)CC1 [Example 41, N-(3-(difluoromethyl)-1-(1-(1-(2-hydroxy-2-methylpropionyl)piperidin-4-yl)azetidin-3-yl)-1H-pyrazol-4-yl)-6-(1H-pyrazol-3-yl)-2-picolinamide] | 0.43 | 23 |
| CC(C)(C#N)n1cc(-c2cccc(C(=O)Nc3cn(C4CN(C5CCN(C(=O)CO)CC5)C4)nc3C(F)F)n2)cn1 [Example 43, 6-(1-(2-Cyanopropan-2-yl)-1H-pyrazol-4-yl)-N-(3-(difluoromethyl)-1-(1-(1-(2-hydroxyacetyl)piperidin-4-yl)azetidin-3-yl)-1H-pyrazol-4-yl)-2-picolinamide] | 0.97 | 42 |

Continued by falling IC50 [1], values first:

| IC50 [1] [nM] | IC50 [2] [nM] | SMILES |
| --- | --- | --- |
| 1.3 | 48 | C[C@@H](O)C(=O)N1CCC(N2CC(n3cc(NC(=O)c4cccc(-c5cnn(CC(F)F)c5)n4)c(C(F)F)n3)C2)CC1 [Example 35, (R)-6-(1-(2,2-difluoroethyl)-1H-pyrazol-4-yl)-N-(3-(difluoromethyl)-1-(1-(1-(2-hydroxypropionyl)piperidin-4-yl)azetidin-3-yl)-1H-pyrazol-4-yl)-2-picolinamide] |
| 1.2 | 29 | CC(=O)N1CCC(N2CC(n3cc(NC(=O)c4cccc(-c5cnn(CC(F)F)c5)n4)c(C(F)F)n3)C2)CC1 [Example 1, N-(1-(1-(1-acetylpiperidin-4-yl)azetidin-3-yl)-3-(difluoromethyl)-1H-pyrazol-4-yl)-6-(1-(2,2-difluoroethyl)-1H-pyrazol-4-yl)-2-picolinamide] |
| 1.2 | – | CS(=O)(=O)N1CCC(N2CC(n3cc(NC(=O)c4cccc(-c5cc[nH]n5)n4)c(C(F)F)n3)C2)CC1 [Example 42, N-(3-(difluoromethyl)-1-(1-(1-(methylsulfonyl)piperidin-4-yl)azetidin-3-yl)-1H-pyrazol-4-yl)-6-(1H-pyrazol-3-yl)-2-picolinamide] |
| 0.91 | 43 | CC(=O)N1CCC(N2CC(n3cc(NC(=O)c4cccc(-c5cnn(C(C)(C)C#N)c5)n4)c(C(F)F)n3)C2)CC1 [Example 12, N-(1-(1-(1-acetylpiperidin-4-yl)azetidin-3-yl)-3-(difluoromethyl)-1H-pyrazol-4-yl)-6-(1-(2-cyanopropan-2-yl)-1H-pyrazol-4-yl)-2-picolinamide] |
| 0.87 | 35 | CC(=O)N1CCC(N2CC(n3cc(NC(=O)c4cccc(-c5cnn(CC(F)(F)F)c5)n4)c(C(F)F)n3)C2)CC1 [Example 3, N-(1-(1-(1-acetylpiperidin-4-yl)azetidin-3-yl)-3-(difluoromethyl)-1H-pyrazol-4-yl)-6-(1-(2,2,2-trifluoroethyl)-1H-pyrazol-4-yl)-2-picolinamide] |
| 0.69 | – | C[C@H](O)C(=O)N1CCC(N2CC(n3cc(NC(=O)c4cccc(-c5cc[nH]n5)n4)c(C(F)F)n3)C2)CC1 [Example 39, (S)—N-(3-(difluoromethyl)-1-(1-(1-(2-hydroxypropionyl)piperidin-4-yl)azetidin-3-yl)-1H-pyrazol-4-yl)-6-(1H-pyrazol-3-yl)-2-picolinamide] |
| 0.59 | 26 | C[C@@H](O)C(=O)N1CCC(N2CC(n3cc(NC(=O)c4cccc(-c5cc[nH]n5)n4)c(C(F)F)n3)C2)CC1 [Example 40, (R)—N-(3-(difluoromethyl)-1-(1-(1-(2-hydroxypropionyl)piperidin-4-yl)azetidin-3-yl)-1H-pyrazol-4-yl)-6-(1H-pyrazol-3-yl)-2-picolinamide] |
